According to patent US11458138B2 (Novartis AG, priority 2017, dated 2022):
pEC50, pIC50: −log10 of the molar value.

What was measured:
LATS1 = LATS1 (Homo sapiens (Human), UniProt O95835); experiment: LATS1 biochemical assay (Table 1A, Compound Examples 1-290; method in the earlier part)
[1] = tested on: Phospho-YAP (SER127) in HaCaT cells; experiment: pYAP HTRF Assay (HaCaT Cells); format: cell-based, human; conditions: Homo sapiens, 2 hours
Procedure: The pYAP HTRF assay was performed using the Phospho-YAP (SER127) 10000 test kit (CisBio, catalogue number 64YAPPEH) according to manufacturer's instructions. Briefly, HaCaT cells were suspended at 1.1×10^6 cells/mL in DMEM (no phenol red)+10% FBS with penicillin-streptomycin-glutamine. 5 μL of cells were dispensed into 1536 well white solid bottom, tissue culture treated plates (5500 cells/well), and incubated for 48 hours at 37° C. 50 nL test compound was transferred into the assay plates containing HaCaT cells using Pintool (GNF) and incubated for 2 hours. […] The plates were incubated overnight (20 hrs) at room temperature covered with metal lids. Plates were read on Pherastar (BMG Labtech) for HTRF (665 nm/620 nm).

[2] = tested on: YAP nuclear translocation in HaCaT cells; experiment: YAP Translocation Assay (HaCaT Cells); format: cell-based, human; conditions: Homo sapiens, 24 hours
Method in brief: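 HaCaT cells (20,000/well) in DMEM + 10% FBS were plated overnight at 37° C, then exposed to compound for 24 h at 37° C. Cells were fixed with PFA, permeabilized with 0.1% Triton/1.5% BSA and imaged by high-content imaging.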

Sequence of LATS1 (O95835 whole entry, looked up): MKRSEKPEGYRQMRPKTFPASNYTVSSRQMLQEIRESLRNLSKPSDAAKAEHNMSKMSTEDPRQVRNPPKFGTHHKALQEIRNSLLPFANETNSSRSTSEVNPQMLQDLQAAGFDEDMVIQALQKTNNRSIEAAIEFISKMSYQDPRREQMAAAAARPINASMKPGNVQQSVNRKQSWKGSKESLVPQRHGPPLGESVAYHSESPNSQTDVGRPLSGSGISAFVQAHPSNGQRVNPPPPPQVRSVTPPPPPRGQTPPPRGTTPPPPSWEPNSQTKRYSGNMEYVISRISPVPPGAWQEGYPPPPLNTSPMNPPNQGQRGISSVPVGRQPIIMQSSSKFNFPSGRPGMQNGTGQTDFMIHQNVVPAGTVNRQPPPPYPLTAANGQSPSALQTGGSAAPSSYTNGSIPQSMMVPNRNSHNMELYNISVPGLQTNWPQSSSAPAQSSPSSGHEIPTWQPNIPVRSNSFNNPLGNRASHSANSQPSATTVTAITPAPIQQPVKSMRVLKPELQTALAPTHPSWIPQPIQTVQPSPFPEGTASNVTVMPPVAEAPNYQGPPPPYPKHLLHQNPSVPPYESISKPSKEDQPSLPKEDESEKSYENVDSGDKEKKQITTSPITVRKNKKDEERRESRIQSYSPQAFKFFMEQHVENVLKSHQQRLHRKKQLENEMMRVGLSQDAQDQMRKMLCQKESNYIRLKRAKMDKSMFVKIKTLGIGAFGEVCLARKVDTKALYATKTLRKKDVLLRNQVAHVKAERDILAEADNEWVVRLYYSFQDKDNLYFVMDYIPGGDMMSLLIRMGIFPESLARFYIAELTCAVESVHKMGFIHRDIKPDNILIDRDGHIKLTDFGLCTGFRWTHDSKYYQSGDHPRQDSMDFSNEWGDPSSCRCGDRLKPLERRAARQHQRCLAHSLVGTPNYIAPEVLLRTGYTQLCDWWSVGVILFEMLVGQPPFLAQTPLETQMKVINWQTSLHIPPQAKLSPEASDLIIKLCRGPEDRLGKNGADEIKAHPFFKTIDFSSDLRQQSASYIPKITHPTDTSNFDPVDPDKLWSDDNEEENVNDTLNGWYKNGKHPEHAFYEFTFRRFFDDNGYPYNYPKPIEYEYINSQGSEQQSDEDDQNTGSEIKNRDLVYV
Sequence of LATS1 (Q7L9L4 whole entry partner, looked up): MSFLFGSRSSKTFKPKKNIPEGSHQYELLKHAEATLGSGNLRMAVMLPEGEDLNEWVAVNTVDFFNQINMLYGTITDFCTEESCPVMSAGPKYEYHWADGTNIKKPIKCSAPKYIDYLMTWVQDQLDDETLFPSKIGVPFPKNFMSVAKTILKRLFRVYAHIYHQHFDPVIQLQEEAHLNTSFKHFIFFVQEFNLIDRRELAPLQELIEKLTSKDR

SMILES	pIC50 (LATS1)	pIC50 [1]	pEC50 [2]
C[C@@H](N(C)c1nc(-c2ccncc2F)nc2cnccc12)C(F)(F)F [Example 137, 2-(3-fluoropyridin-4-yl)-N-methyl-N-[(2R)-1,1,1-trifluoropropan-2-yl]pyrido[3,4-d]pyrimidin-4-amine]	7.66	4.45	< 4.75
CC1(Nc2nc(-c3ccncc3)nc3cncc(Cl)c23)CC1 [Example 252, 5-chloro-N-(1-methylcyclopropyl)-2-(pyridin-4-yl)pyrido[3,4-d]pyrimidin-4-amine]	8.70	5.16	< 5.00
CC(C)CNc1nc(-c2ccncc2)nc2cnccc12 [Example 103, N-(2-methylpropyl)-2-(pyridin-4-yl)pyrido[3,4-d]pyrimidin-4-amine]	8.70	5.58	5.64
CC1(Nc2nc(-c3ccncc3)nc3cnccc23)COC1 [Example 16, N-(3-methyloxetan-3-yl)-2-(pyridin-4-yl)pyrido[3,4-d]pyrimidin-4-amine]	8.30	5.01	4.80
CC[C@H](C)Nc1nc(-c2ccncc2)nc2cnccc12 (single isomer, unassigned) [Example 68a]	9.00	5.84	5.77
CC(C)(Nc1nc(-c2ccncc2)nc2cnccc12)C1CC1 [Example 1, N-(2-cyclopropylpropan-2-yl)-2-(pyridin-4-yl)pyrido[3,4-d]pyrimidin-4-amine]	9.00	7.72	6.49
CCCNc1nc(-c2c[nH]c3ncncc23)nc2cnccc12 [Example 161, 4 N-propyl-2-{7H-pyrrolo[2,3-d]pyrimidin-5-yl}pyrido[3,4-d]pyrimidin-4-amine]	7.60	< 4.00	< 4.70
COc1ccc(Nc2nc(-c3ccncc3)nc3cnccc23)cc1 [Example 91, N-(4-methoxyphenyl)-2-(pyridin-4-yl)pyrido[3,4-d]pyrimidin-4-amine]	6.83	< 5.00	< 4.70
NCCCCCCNc1nc(-c2ccncc2)nc2cnccc12 [Example 105, N-(6-aminohexyl)-2-(pyridin-4-yl)pyrido[3,4-d]pyrimidin-4-amine]	9.00	4.70	< 4.70
CC1(Nc2nc(-c3ccnc(N)c3)nc3cnccc23)CC1 [Example 138, 4-{4-[(1-methylcyclopropyl)amino]pyrido[3,4-d]pyrimidin-2-yl}pyridin-2-amine]	8.70	5.47	5.04
CNc1nc(-c2ccncc2)nc2cnccc12 [Example 86, N-methyl-2-(pyridin-4-yl)pyrido[3,4-d]pyrimidin-4-amine]	7.59	4.25	< 4.70
COC1CC(Nc2nc(-c3ccncc3)nc3cnccc23)C1 (stereo not drawn) [Example 52, N-(3-methoxycyclobutyl)-2-(pyridin-4-yl)pyrido[3,4-d]pyrimidin-4-amine]	7.92	4.95	< 4.70
CCCCCNc1nc(-c2ccncc2)nc2cnccc12 [Example 77, N-pentyl-2-(pyridin-4-yl)pyrido[3,4-d]pyrimidin-4-amine]	8.05	< 4.00	4.87
Cc1n[nH]cc1-c1nc(NC(C)(C)C(F)(F)F)c2ccncc2n1 [Example 135, 2-(3-methyl-1H-pyrazol-4-yl)-N-(1,1,1-trifluoro-2-methylpropan-2-yl)pyrido[3,4-d]pyrimidin-4-amine]	8.70	6.31	6.07
O=C(O)CC(Nc1nc(-c2ccncc2)nc2cnccc12)C(F)(F)F (stereo not drawn) [Example 44, 4,4,4-trifluoro-3-{[2-(pyridin-4-yl)pyrido[3,4-d]pyrimidin-4-yl]amino}butanoic acid]	< 5.60	< 5.00	< 4.70
